# Source: patent US5028440A, “Method of raising meat producing animals to increase lean tissue development” (Iowa State University Research Foundation, Inc., priority 1990, dated 1991)
# “Also recorded” adds a separate entry of the source.
# Legend:
# [1] = Stability of KIC or HMB in the rumen (incubation in rumen fluid); assay type: in vitro ADME, steer; settings: for KIC or HMB in rumen fluid: 39° C.
# Experimental: Rumen fluid was collected from a fistulated steer. After filtration and dilution (1:4) with an artificial saliva, 25ml of the solution was added to 50ml plastic tubes. Each tube was fitted with a one-way valve to allow gases to escape while not allowing air into the tube. Each tube was then gassed with CO2 and incubated at 39° C. After 30 min a solution of KIC or HMB was added to the tube in concentrations to simulate what would be present in the rumen of an animal consuming 0.05% of the diet as KIC or HMB. It was estimated that a 50 uM concentration would be attained in this case. At timed intervals 50 ul samples of this rumen fluid were taken and analyzed for KIC and HMB.
# lambs [2] = test: Feeding of HMB to Lambs--Trial 1; assay type: in vivo
# Description: Animals and Experimental Design. Three sets of twin lambs were housed individually in fiberglass pens. Animals were randomly assigned to control or HMB diets, using Ca-HMB as the feed additive at a level of 0.5% of the basal diet.
# Composition of Basal Diet Fed to All Sheep.
# (§1) Trace mineral & vitamin premix
# lambs [3] = test: Feeding of HMB to Lambs--Trial 2; assay type: in vivo
# Description: Animals and Experimental Design. Twenty-two lambs were housed individually in fiberglass pens (1.15 m^2) and randomly assigned to control or HMB diets. The control had nothing added to the diet while the HMB animals had 1 g of CaHMB supplemented to their diets each day. At the beginning of the experiment animals were weighed and ultrasound measurement made of the longissimus area and the amount of fat over the longissimus muscle. These measurements were made over the 12th rib area. Feed consumption was monitored. At the end of the experiment animals were weighed, feed consumption measured and the longissimus area and fat thickness measured again with the ultrasound apparatus. The gain in longissimus area and backfat were calculated from the initial value.
# Composition of Basal Diet Fed to All Sheep
# as §1
# male leghorn chicks = test: Feeding HMB to Poultry: growth, feed efficiency and breast muscle of chicks; assay type: in vivo; settings: 0.04% of the diet; for Feed/gain / Breast muscle / Gain: 5 week data; for Feed/gain: control 2.30; for Breast muscle: control 2.84; for Gain: control 222; for Breast muscle, change from control / Feed/gain, change from control: ** (HMB) significant at p < .02
# Experimental: (§2) To compare KIC and HMB as growth promotants, young male leghorn chicks were allotted to 12 battery (wire mess floors) pens consisting of 10 birds each. Treatments of control, HMB (0.04% of the diet) and KIC (0.04% of the diet) were assigned to the pens. Feed consumption was measured during the 5 week experiment. During week 2 of the experiment chicks were injected with 50 ul of a 20% suspension of pig red blood cells intraperitoneally.
# (§3) Chicks were fed a diet adequate in all nutrients for leghorns of this age. HMB was a supplement to this diet at 0.04% of the diet (w/w).
# (§4) At the end of the 5 week experiment chicks were decapitated and serum collected for pig red blood cells antibody titer determination. Titers to red blood cells were evaluated by a microtiter agglutination test (Kuhlman, et al.). Also, the Pectoralis major muscle (the major breast muscle) was dissected and weighed as a measure of muscle growth.
# pig red blood cells = test: Pig red blood cell antibody titer in chicks (microtiter agglutination test); assay type: in vivo, chicks (male leghorn); settings: 0.04% of the diet, 5 weeks; for Red blood cell titer, change from control: ** (HMB) significant at p < .02; for Red blood cell titer: pig red blood cells injected week 2, control 1.57
# Experimental: as §2, §3, §4
# domestic animals [4] = test: Growth metabolism of domestic animals, HMB compared with KIC (summary statement); settings: in vivo
# [5] = feeds for cattle and sheep; background statement; cited from earlier work
# domestic animals [6] = settings: cited from earlier work
# [7] = KIC fed as replacement for leucine; cited from earlier work
# [8] = Hygroscopicity of HMB salts; assay type: physicochemical
# [9] = 0 min after addition, rumen fluid diluted 1:4 with artificial saliva, initial KIC could only be estimated
# [10] = 15 min after addition, rumen fluid diluted 1:4
# [11] = 30 min after addition, rumen fluid diluted 1:4
# [12] = 60 min after addition, rumen fluid diluted 1:4
# [13] = 240 min after addition, rumen fluid diluted 1:4
# [14] = 480 min after addition, rumen fluid diluted 1:4
smiles,measurement,setting,value
"CC(C)(O)CC(=O)O [HMB, β-hydroxy-β-methyl butyric acid]",stability in rumen environment (in words),[1],not being subject to appreciable rumen destruction; also recorded: not subject to significant rumen destruction; also recorded: quite stable in a rumen environment
same,KIC or HMB in rumen fluid,[1]; [9],60 µM
same,KIC or HMB in rumen fluid,[1]; [10],76 µM
same,KIC or HMB in rumen fluid,[1]; [11],81 µM
same,KIC or HMB in rumen fluid,[1]; [12],71 µM
same,KIC or HMB in rumen fluid,[1]; [13],74 µM
same,KIC or HMB in rumen fluid,[1]; [14],74 µM
same,Longissimus area,"lambs [2]; Ca-HMB 0.5% of the basal diet, control 2.1",2.3 sq. in.
same,Renal Fat %,"lambs [2]; Ca-HMB 0.5% of the basal diet, control 2.42",1.90 % of animal live weight
same,Feed/gain,"lambs [2]; Ca-HMB 0.5% of the basal diet, control 3.89",3.60
same,Back Fat (fat thickness over 12th rib),"lambs [2]; Ca-HMB 0.5% of the basal diet, control .21",.12 in
same,Average daily gain,"lambs [2]; Ca-HMB 0.5% of the basal diet, control .287",.296 kg/day
same,lean tissue and fat growth (in words),"lambs [2]; limited study, vs controls",appeared to stimulate growth of lean tissues at the expense of fat
same,"% change due to HMB, Average daily gain",lambs [2]; vs controls,+3%
same,"% change due to HMB, Feed/Gain",lambs [2]; vs controls,-7%
same,"% change due to HMB, Longissimus area",lambs [2]; vs controls,+10%
same,"% change due to HMB, Back Fat","lambs [2]; vs controls, *P < 0.5",-43%
same,"% change due to HMB, Renal Fat","lambs [2]; vs controls, *P < 0.5",-22%
same,Feed/gain,"lambs [3]; 1 g CaHMB per day, control 4.41",4.28
same,Total gain,"lambs [3]; 1 g CaHMB per day, lambs from 60 lbs. to 100 lbs., control 38.5",40.5 lbs
same,Loin area gain,"lambs [3]; 1 g CaHMB per day, ultrasound, control 2.08",3.34 cm2
same,Back fat gain,"lambs [3]; 1 g CaHMB per day, ultrasound, control .27",.19 cm
same,"% Change, Feed/gain",lambs [3]; vs control,-3%
same,"% Change, Total gain",lambs [3]; vs control,+6%
same,performance and lean vs. fat gain (in words),lambs [3]; vs control,increases preformance and increases lean vs. fat gain
same,"% Change, Back fat gain","lambs [3]; vs control, **P < .02 level",-30%
same,"% Change, Loin area gain","lambs [3]; vs control, **P < .02 level",60%
same,Feed/gain,male leghorn chicks,2.17
same,Breast muscle,male leghorn chicks,3.00%
same,Gain,male leghorn chicks,229 g
same,"Gain, change from control",male leghorn chicks; 5 weeks,3.3%
same,comparison with KIC in all parameters (in words),male leghorn chicks; 5 weeks,superior in all parameters measured
same,performance of growing chicks (in words),male leghorn chicks; 5 weeks,increased performance of growing chicks by increasing the rate of growth and by making more efficient use of feed for growth
same,"Breast muscle, change from control",male leghorn chicks; 5 weeks,5.5%
same,"Feed/gain, change from control",male leghorn chicks; 5 weeks,-5.8%
same,"Red blood cell titer, change from control",pig red blood cells,107%
same,Red blood cell titer,pig red blood cells,3.25 dilution
same,improving growth metabolism compared with KIC (in words),domestic animals [4],more effective for improving growth metabolism of domestic animals
same,lean tissue development (in words),domestic animals [4],increase markedly the development of lean tissue
"CC(C)CC(=O)C(=O)O [KIC, α-keto-isocaproic acid, reference compound]",stability in rumen environment (in words),[1],rapidly destroyed by the rumen bacteria
same,KIC or HMB in rumen fluid,[1]; [9],30 µM
same,KIC or HMB in rumen fluid,[1]; [10],15 µM
same,KIC or HMB in rumen fluid,[1]; [11],4 µM
same,KIC or HMB in rumen fluid,[1]; [12],2 µM
same,KIC or HMB in rumen fluid,[1]; [13],2 µM
same,KIC or HMB in rumen fluid,[1]; [14],1 µM
same,Feed/gain,male leghorn chicks,2.24
same,Breast muscle,male leghorn chicks,2.94%
same,Gain,male leghorn chicks,229 g
same,"Gain, change from control",male leghorn chicks; 5 weeks,3.3%
same,"Breast muscle, change from control",male leghorn chicks; 5 weeks,3.5%
same,"Feed/gain, change from control",male leghorn chicks; 5 weeks,-2.5%
same,"Red blood cell titer, change from control",pig red blood cells,68%
same,Red blood cell titer,pig red blood cells,2.65 dilution
same,accumulation of body fat (in words),domestic animals [4],slight tending for KIC to reduce the accumulation of body fat
same,lean tissue development (in words),domestic animals [4],not obtainable with KIC
same,rumen destruction (in words),[5],subject to partial rumen destruction
same,effects on the immune system (in words),"domestic animals [6]; U.S. Pat. No. 4,835,185",some apparently beneficial effects on the immune system
same,"cholesterol in meat, milk and eggs (in words)","domestic animals [6]; U.S. Pat. Nos. 4,760,090 and 4,760,531","cholesterol reduction in meat, milk and eggs"
same,consistency of beneficial effects (in words),"domestic animals [6]; domestic animals, particularly ruminants",not consistently obtainable
same,milk production (in words),"domestic animals [6]; lactating domestic animals, such as dairy cattle, U.S. Pat. No. 4,758,593",the quantity of milk produced may be increased
same,egg production (in words),"domestic animals [6]; laying chickens, U.S. Pat. No. 4,760,531",can also sometimes be increased
same,wool production (in words),"domestic animals [6]; mature sheep, U.S. Pat. No. 4,760,090",the amount of wool produced may also be increased
same,rates of weight gain and/or feed efficiencies (in words),"domestic animals [6]; milligram amounts of KIC, U.S. Pat. Nos. 4,760,090 and 4,883,817",some increases in the rates of weight gain and/or feed efficiencies have been obtained
same,muscle growth (in words),domestic animals [6]; previous research,generally has not been found to stimulate muscle growth
same,fat deposition (in words),"domestic animals [6]; sheep, previous research",decrease fat deposition
same,amount of KIC required relative to nutritionally required amount of leucine,[7],two to three
CC(C)(O)CC(=O)O [Na-HMB],hygroscopicity (in words),[8],more hydroscopic than Ca-HMB
